Results taken from patent US20210255193A1, “LYSINE REACTIVE PROBES AND USES THEREOF” (The Scripps Research Institute, priority 2017, published 2021).

What was measured:
Assay in all cases: competitive isoTOP-ABPP
Type in all cases: binding
[1] = biological target: T1, DYNC1H1 Cytoplasmic dynein 1 heavy chain 1 (Homo sapiens, UniProt Q14204); details: for isoTOP-ABPP ratio (R) at liganded lysine Q14204_K1649: sol, 231; for isoTOP-ABPP ratio, lysine Q14204_K1649: 50 uM_231_sol_in vitro
T1 construct: isoTOP-ABPP experiments performed in cell lysates (in vitro); endogenous in cells; host or cells: soluble proteome of human cancer cell lines (MDA-MB-231, Ramos, Jurkat)
T1 sequence (Q14204 whole entry): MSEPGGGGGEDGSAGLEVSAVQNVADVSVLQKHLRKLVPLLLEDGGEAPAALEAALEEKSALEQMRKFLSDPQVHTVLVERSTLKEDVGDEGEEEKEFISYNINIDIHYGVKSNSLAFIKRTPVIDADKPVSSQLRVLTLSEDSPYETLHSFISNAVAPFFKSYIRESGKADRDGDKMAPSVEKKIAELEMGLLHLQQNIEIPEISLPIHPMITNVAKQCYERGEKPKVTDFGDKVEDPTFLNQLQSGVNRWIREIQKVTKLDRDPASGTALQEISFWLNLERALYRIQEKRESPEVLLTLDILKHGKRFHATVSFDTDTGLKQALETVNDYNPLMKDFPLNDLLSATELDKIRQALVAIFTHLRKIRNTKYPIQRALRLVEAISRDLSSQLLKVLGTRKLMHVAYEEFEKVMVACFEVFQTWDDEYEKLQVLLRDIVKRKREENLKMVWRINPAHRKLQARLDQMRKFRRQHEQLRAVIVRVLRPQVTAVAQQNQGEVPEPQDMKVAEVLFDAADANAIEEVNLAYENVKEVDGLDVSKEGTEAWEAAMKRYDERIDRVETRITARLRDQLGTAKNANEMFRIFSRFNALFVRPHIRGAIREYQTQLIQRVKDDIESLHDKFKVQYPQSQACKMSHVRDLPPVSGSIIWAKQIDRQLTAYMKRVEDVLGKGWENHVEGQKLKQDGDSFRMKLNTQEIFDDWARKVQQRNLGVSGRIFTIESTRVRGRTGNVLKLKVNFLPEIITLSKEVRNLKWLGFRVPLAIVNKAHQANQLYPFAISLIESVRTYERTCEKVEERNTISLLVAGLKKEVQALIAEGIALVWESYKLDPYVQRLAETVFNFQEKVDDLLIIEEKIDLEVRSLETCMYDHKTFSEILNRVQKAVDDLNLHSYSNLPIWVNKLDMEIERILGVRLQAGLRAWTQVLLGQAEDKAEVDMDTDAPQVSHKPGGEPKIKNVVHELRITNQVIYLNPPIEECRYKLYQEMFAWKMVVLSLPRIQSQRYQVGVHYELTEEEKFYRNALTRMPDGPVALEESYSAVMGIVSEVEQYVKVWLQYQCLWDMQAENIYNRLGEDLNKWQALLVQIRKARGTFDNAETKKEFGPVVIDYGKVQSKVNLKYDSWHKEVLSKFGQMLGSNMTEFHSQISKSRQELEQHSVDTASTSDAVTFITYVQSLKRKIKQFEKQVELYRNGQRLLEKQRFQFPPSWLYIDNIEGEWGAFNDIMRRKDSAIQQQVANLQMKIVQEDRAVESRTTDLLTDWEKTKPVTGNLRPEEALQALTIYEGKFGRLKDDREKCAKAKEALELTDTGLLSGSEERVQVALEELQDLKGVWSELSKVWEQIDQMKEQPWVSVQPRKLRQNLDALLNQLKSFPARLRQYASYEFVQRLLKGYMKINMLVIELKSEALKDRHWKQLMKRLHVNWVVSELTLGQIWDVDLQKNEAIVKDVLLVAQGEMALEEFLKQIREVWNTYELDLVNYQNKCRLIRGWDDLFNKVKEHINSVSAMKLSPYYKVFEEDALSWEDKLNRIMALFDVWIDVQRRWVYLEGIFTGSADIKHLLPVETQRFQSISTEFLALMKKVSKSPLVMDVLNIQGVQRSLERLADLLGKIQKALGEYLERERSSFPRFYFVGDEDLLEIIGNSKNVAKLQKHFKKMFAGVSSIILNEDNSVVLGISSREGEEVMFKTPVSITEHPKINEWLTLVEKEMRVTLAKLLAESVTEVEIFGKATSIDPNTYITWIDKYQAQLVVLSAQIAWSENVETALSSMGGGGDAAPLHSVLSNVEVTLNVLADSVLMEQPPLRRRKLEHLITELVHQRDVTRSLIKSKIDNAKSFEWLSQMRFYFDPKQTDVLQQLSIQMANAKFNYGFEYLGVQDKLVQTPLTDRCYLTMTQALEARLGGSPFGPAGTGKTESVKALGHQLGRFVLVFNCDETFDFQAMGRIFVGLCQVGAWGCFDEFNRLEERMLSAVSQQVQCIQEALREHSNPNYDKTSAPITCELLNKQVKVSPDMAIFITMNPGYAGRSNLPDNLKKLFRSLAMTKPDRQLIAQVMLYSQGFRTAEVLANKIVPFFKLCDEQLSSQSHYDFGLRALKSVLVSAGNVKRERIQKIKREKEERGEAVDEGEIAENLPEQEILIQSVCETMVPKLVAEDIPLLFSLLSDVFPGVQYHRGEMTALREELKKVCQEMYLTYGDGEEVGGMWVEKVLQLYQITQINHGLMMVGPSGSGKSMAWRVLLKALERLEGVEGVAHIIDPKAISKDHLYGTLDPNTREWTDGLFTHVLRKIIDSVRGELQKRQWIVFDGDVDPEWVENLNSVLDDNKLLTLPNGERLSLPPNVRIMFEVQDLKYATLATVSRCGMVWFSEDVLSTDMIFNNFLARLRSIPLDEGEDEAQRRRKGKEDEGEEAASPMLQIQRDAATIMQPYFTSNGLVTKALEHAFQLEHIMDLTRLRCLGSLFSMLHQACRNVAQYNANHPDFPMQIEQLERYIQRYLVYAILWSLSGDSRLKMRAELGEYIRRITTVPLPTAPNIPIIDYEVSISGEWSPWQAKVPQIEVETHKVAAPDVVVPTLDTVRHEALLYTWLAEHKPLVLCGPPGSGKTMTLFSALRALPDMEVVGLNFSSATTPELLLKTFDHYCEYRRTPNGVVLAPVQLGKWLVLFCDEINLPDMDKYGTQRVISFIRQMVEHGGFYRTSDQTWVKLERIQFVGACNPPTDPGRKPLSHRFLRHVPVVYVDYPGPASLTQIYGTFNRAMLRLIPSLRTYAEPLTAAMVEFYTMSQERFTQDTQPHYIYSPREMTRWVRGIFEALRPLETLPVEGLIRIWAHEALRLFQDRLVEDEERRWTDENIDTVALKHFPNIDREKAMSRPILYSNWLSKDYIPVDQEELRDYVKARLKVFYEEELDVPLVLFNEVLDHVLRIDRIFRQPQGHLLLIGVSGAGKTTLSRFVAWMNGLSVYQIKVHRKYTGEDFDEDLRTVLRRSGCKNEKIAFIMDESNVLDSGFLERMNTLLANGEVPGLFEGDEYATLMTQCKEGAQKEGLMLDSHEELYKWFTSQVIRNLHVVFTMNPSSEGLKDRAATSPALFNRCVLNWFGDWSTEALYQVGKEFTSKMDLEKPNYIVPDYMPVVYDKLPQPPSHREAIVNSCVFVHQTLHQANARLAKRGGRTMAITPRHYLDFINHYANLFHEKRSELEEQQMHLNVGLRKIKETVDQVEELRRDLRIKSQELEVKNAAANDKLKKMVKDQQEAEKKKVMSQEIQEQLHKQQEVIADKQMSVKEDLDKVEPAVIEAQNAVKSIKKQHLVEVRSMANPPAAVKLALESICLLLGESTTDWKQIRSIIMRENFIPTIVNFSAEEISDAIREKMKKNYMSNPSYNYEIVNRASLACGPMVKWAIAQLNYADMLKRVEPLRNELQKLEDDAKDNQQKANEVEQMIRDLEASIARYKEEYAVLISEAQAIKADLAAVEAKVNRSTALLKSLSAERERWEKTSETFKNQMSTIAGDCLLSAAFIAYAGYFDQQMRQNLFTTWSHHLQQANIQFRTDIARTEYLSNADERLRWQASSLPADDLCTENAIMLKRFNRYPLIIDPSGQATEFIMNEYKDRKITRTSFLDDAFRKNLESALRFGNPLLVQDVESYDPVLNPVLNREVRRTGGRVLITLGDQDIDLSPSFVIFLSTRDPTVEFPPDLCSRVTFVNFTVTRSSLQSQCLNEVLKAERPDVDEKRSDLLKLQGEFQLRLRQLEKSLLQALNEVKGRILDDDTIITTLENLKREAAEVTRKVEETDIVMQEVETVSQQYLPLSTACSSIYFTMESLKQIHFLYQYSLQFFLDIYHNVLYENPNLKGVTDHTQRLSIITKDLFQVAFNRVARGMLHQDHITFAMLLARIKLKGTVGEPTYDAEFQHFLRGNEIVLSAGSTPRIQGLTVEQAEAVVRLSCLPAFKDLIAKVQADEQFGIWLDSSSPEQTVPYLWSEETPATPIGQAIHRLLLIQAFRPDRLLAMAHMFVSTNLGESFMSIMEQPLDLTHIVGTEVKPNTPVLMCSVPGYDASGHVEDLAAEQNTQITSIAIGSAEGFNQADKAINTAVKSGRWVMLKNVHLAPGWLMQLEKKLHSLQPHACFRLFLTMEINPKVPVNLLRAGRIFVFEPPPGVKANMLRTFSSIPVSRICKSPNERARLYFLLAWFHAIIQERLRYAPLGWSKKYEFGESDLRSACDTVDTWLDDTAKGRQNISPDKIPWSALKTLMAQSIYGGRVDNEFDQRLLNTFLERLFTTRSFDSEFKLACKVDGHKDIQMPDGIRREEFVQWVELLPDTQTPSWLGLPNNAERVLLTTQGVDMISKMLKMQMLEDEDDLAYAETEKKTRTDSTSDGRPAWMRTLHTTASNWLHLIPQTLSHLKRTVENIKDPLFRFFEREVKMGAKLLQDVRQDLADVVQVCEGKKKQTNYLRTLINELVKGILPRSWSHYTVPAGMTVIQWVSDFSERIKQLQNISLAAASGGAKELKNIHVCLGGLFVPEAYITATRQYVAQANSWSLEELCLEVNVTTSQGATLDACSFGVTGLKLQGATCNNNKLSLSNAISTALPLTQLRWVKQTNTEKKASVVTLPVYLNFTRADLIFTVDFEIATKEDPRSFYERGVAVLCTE
Procedure, shortened: (§1)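 Fragments at 50 μM (activated esters) or 100 μM (guanidinylating agents) were incubated with 0.5 ml lysate before probe labeling. After 0.1 mM STP-alkyne for 1 h, samples were clicked to isotopically distinct TEV tags, and R taken as DMSO-over-compound MS1 peak-area ratio.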

[2] = biological target: T2, TRAP1 Heat shock protein 75 kDa, mitochondrial (Homo sapiens, UniProt Q12931); details: for isoTOP-ABPP ratio (R) at liganded lysine Q12931_K699: sol, 231; for isoTOP-ABPP ratio, lysine Q12931_K699: 50 uM_231_sol_in vitro
T2 construct: isoTOP-ABPP experiments performed in cell lysates (in vitro); endogenous in cells; host or cells: soluble proteome of human cancer cell lines (MDA-MB-231, Ramos, Jurkat)
T2 sequence (Q12931 60-704): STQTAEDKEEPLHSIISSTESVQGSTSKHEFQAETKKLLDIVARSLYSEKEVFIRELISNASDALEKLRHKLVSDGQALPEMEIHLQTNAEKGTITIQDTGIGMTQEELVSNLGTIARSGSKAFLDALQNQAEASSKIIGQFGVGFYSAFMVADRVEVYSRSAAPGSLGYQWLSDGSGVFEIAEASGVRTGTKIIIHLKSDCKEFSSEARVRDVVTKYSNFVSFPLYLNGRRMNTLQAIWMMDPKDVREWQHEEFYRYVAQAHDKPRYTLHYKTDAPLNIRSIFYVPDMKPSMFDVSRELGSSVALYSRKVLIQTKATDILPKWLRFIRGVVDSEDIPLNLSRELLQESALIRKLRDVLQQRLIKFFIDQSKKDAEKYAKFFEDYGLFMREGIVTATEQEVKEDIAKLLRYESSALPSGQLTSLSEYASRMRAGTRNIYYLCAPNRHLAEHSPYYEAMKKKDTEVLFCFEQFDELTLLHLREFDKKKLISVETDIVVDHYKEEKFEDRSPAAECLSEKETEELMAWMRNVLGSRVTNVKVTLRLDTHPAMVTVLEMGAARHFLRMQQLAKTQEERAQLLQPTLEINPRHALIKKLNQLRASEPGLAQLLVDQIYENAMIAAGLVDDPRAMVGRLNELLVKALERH
Procedure, shortened: as §1

[3] = biological target: T3, MTOR Serine/threonine-protein kinase mTOR (Homo sapiens, UniProt P42345); details: for isoTOP-ABPP ratio (R) at liganded lysine P42345_K2066: sol, 231; for isoTOP-ABPP ratio, lysine P42345_K2066: 50 uM_231_sol_in vitro
T3 construct: isoTOP-ABPP experiments performed in cell lysates (in vitro); endogenous in cells; host or cells: soluble proteome of human cancer cell lines (MDA-MB-231; Ramos and Jurkat also prepared)
Procedure, shortened: as §1

[4] = biological target: T4, WARS Tryptophan--tRNA ligase, cytoplasmic (Homo sapiens, UniProt P23381); details: 50 uM, in vitro; for isoTOP-ABPP ratio (R) at liganded lysine P23381_K256: sol, 231
T4 construct: isoTOP-ABPP experiments performed in cell lysates (in vitro); endogenous in cells; host or cells: soluble proteome of human cancer cell lines (MDA-MB-231; Ramos and Jurkat also prepared)
T4 sequence (P23381 1-471): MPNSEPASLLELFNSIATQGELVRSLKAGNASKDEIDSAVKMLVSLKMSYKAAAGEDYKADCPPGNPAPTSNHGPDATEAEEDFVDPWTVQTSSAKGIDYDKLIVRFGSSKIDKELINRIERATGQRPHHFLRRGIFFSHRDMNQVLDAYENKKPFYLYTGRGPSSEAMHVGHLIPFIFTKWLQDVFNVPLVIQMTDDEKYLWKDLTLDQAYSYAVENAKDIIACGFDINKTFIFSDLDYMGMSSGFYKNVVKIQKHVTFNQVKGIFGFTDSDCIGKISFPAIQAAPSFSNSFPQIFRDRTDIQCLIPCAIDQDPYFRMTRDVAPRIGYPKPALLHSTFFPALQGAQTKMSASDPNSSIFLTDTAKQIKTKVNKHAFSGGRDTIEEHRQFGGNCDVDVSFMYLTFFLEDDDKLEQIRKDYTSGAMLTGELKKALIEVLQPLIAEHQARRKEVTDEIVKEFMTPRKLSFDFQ
Procedure, shortened: as §1

[5] = biological target: T5, HNRNPK Heterogeneous nuclear ribonucleoprotein K (Homo sapiens, UniProt P61978); details: for isoTOP-ABPP reactivity ratio at lysine P61978_K405 / isoTOP-ABPP ratio (R) at liganded lysine P61978_K405: 50 uM, in vitro; for isoTOP-ABPP reactivity ratio at lysine P61978_K405: 231 sol; for isoTOP-ABPP ratio (R) at liganded lysine P61978_K405: sol, 231
T5 construct: isoTOP-ABPP experiments performed in cell lysates (in vitro); endogenous in cells; host or cells: soluble proteome of human cancer cell lines (MDA-MB-231, Ramos, Jurkat)
Procedure, shortened: as §1

| SMILES | isoTOP-ABPP ratio (R) at liganded lysine Q14204_K1649 ([1]; 50 uM, in vitro) | isoTOP-ABPP ratio (R) at liganded lysine Q12931_K699 ([2]; 50 uM, in vitro) | isoTOP-ABPP ratio (R) at liganded lysine P42345_K2066 ([3]; 50 uM, in vitro) | isoTOP-ABPP ratio (R) at liganded lysine P23381_K256 [4] | isoTOP-ABPP reactivity ratio at lysine P42345_K2066 ([3]; 50 uM, 231 sol, in vitro) | isoTOP-ABPP reactivity ratio at lysine P23381_K256 ([4]; 231 sol) | also measured |
| --- | --- | --- | --- | --- | --- | --- | --- |
| O=C(CCc1coc2cc(F)ccc2c1=O)Oc1ccc([N+](=O)[O-])cc1[N+](=O)[O-] [fragment 36, 2,4-Dinitrophenyl 3-(7-fluoro-4-oxo-4H-chromen-3-yl)propanoate] | 1.2 | 1.7 | 3.0 | 1.0 | – | – | – |
| O=C(Oc1ccc([N+](=O)[O-])cc1[N+](=O)[O-])C(c1ccccc1)(c1ccccc1)c1ccccc1 [fragment 42, 2,4-Dinitrophenyl 2,2,2-triphenylacetate] | 0.8 | 1.0 | – | 1.1 | – | – | – |
| O=C(CCc1coc2cc(F)ccc2c1=O)Oc1c(F)c(F)c(F)c(F)c1F [fragment 26, Pentafluorophenyl 3-(7-fluoro-4-oxo-4H-chromen-3-yl)propanoate] | – | – | – | – | 2.8 | 2.3 | isoTOP-ABPP reactivity ratio at lysine P61978_K405 [5]: 0.9 |
| O=C(Oc1ccc([N+](=O)[O-])cc1[N+](=O)[O-])c1ccccc1Nc1cccc(C(F)(F)F)c1 [fragment 40, 2,4-Dinitrophenyl 2-((3-(trifluoromethyl)phenyl)amino)benzoate] | 0.8 | 0.9 | 0.8 | 1.1 | – | – | isoTOP-ABPP ratio (R) at liganded lysine P61978_K405 [5]: 0.9 |
| O=C(Oc1ccc([N+](=O)[O-])cc1[N+](=O)[O-])C1CCN(C(=O)OCc2ccccc2)CC1 [fragment 34, 1-Benzyl 4-(2,4-dinitrophenyl) piperidine-1,4-dicarboxylate] | – | 1.8 | 1.1 | 1.0 | – | – | isoTOP-ABPP ratio (R) at liganded lysine P61978_K405 [5]: 1.4 |
| Cn1cc(CC(=O)Oc2c(F)c(F)c(F)c(F)c2F)c2ccccc21 [fragment 22, Pentafluorophenyl 2-(1-methyl-1H-indol-3-yl)acetate] | – | – | – | – | – | – | R value (DMSO/fragment) for probe 1 labeling ([1]; Q14204_K1649, 50 uM, 231 sol, in vitro): 1.1; R value (DMSO/fragment) for probe 1 labeling ([2]; Q12931_K699, 50 uM, 231 sol, in vitro): 1.1; R value (DMSO/fragment) for probe 1 labeling ([3]; P42345_K2066, 50 uM, 231 sol, in vitro): 2.8; R value (DMSO/fragment) for probe 1 labeling ([4]; P23381_K256, 231 sol): 1.0 |
| O=C(Oc1c(F)c(F)c(C(F)(F)F)c(F)c1F)c1cc(C(F)(F)F)cc(C(F)(F)F)c1 [fragment 47, 2,3,5,6-Tetrafluoro-4-(trifluoromethyl)phenyl 3,5-bis(trifluoromethyl)benzoate] | – | – | – | – | – | – | isoTOP-ABPP ratio, lysine Q14204_K1649 [1]: 0.9; isoTOP-ABPP ratio, lysine Q12931_K699 [2]: 1.1; isoTOP-ABPP ratio, lysine P42345_K2066 [3]: 1.1 |
| NC(=O)c1cc(C(F)(F)F)cc(C(F)(F)F)c1 [fragment 51, reference compound] | – | – | – | – | – | – | isoTOP-ABPP ratio, lysine Q14204_K1649 [1]: 0.7; isoTOP-ABPP ratio, lysine P61978_K405 ([5]; 50 uM_231_sol_in vitro): 1.2; isoTOP-ABPP ratio, lysine Q12931_K699 [2]: 1.2; isoTOP-ABPP ratio, lysine P42345_K2066 [3]: 0.8 |
| COc1cc(CCC(=O)Oc2ccc([N+](=O)[O-])cc2[N+](=O)[O-])cc(OC)c1OC [fragment 33, 2,4-Dinitrophenyl 3-(3,4,5-trimethoxyphenyl)propanoate] | – | – | – | – | 1.1 | 0.8 | isoTOP-ABPP reactivity ratio at lysine Q14204_K1649 ([1]; 50 uM, 231 sol, in vitro): 1.1; isoTOP-ABPP reactivity ratio at lysine Q12931_K699 ([2]; 50 uM, 231 sol, in vitro): 1.5 |
| O=C(Oc1ccc([N+](=O)[O-])cc1[N+](=O)[O-])C(c1ccccc1)c1ccccc1 [fragment 30, 2,4-Dinitrophenyl 2,2-diphenylacetate] | – | – | – | – | 3.5 | 1.1 | isoTOP-ABPP reactivity ratio at lysine P61978_K405 [5]: 0.9; isoTOP-ABPP reactivity ratio at lysine Q12931_K699 ([2]; 50 uM, 231 sol, in vitro): 4.1 |
